pIC50: −log10 of the molar value.
Biological target: T1, human GPR84 receptor (Homo sapiens, UniProt Q9NQS5)
T1 construct: host or cells: HEK293, transiently transfected
Assay: Gαi biosensor BRET assay (GPR84 antagonism vs agonist ZQ-16)
Format: cell-based
Conditions: HEK293 cells, 200 nmol/L agonist ZQ-16; for pIC50: Gαi biosensor BRET assay; for inhibition at 2 µM: tested at 2 μM (concentration code A); for inhibition at 10 µM: tested at 10 μM (concentration code D)
Description: Background—The following assays can be used for determination of GPR84 activation in living HEK293 cells. The Gai BRET biosensor (Gagnon et al., 2018; Gales et al., 2006. Nat Struct Mol Biol. 13, 778-86; Saulieres et al., 2012. Nat Chem Biol. 8, 622-30) allows to directly monitor GPR84-mediated activation of Gai. The Gai biosensor consists of a Rluc8-tagged Gai2 subunit, a GFP10-tagged Gy2 subunit, and an untagged GB1. Agonist stimulation and GPR84 activation triggers a physical separation between the RLuc8-Gai donor and the GFP10-Gy2 acceptor, resulting in a decrease in BRET signal whose amplitude is correlated to ligand efficacy (Gales et al., 2006). Moreover, signaling functions of GPCRs are tightly regulated by endocytosis, the targeting of receptors to endosomes and their sorting to lysosomes or recycling to the plasma membrane. The early endosomes (EEs) trafficking assay (Namkung et al., 2016. Nat Commun. 7, 12178) uses Rluc8-tagged GPR84 and Renilla GFP (rGFP) attached to the FYVE domain from human endofin/zinc finger FYVE domain-containing protein 16, which binds phosphatidylinositol 3-phosphate in EEs. Agonist stimulation of GPR84-Rluc8 leads to trafficking of the receptor to EEs, and ensuing increase of the donor concentration relative to the rGFP-FYVE acceptor anchored in the same cellular compartment, and thus results in an increase in BRET signal.
Plasmids—The cDNA clones for human GPR84 receptor, human Gai2, GB1, and Gy2 were obtained from the cDNA Resource Center (www.cdna.org). GFP10 (F64L, S147P, S202F and H231L variant of Aequorea victoria Green Fluorescent Protein) gBlocks gene fragments (Integrated DNA Technologies, IA) and linker were inserted in frame at the N-terminus of human Gy2. Rluc8 (A55T, C124A, S130A, K136R, A143M, M185V, M253L, and S287L variant of the Renilla reniformis luciferase) gBlocks gene fragment was inserted with linkers in frame in between residues 91 and 92 of Gai2 or at the C-terminus of GPR84. The FYVE domain from human endofin (residues Q739 to K806) attached in frame at the C terminus of a humanized Renilla GFP (rGFP), were synthesized as gBlocks gene fragments.
Bioluminescence Resonance Energy Transfer (BRET) Measurement-HEK293 cells were transfected with GPR84-Rluc8 and rGFP-FYVE for the EEs trafficking biosensor or with GPR84, Gai2-Rluc8, GFP10-Gy2, and GB1 for the Ga; biosensor. The following day, transiently transfected cells were seeded in 96-well white clear bottom microplates coated with poly-D-lysine and left in culture for 24 hours. Cells were washed once with Tyrode's buffer (140 mmol/L NaCl, 1 mmol/L CaCl2), 2.7 mmol/L KCl, 0.49 mmol/L MgCl2, 0.37 mmol/L NaH2PO4, 5.6 mmol/L glucose, 12 mmol/L NaHCO3, and 25 mmol/L HEPES, pH 7.5) before performing assays in Tyrode's buffer. Test compounds were incubated with cells for 5 (Gai) or 15 (EEs) minutes at 37° C. before addition of 200 nmol/L of the GPR84 agonist ZQ-16 (2-(Hexylthio)-6-hydroxy-4 (3H)-pyrimidinone) for 5 minutes at room temperature (Gai) or 30 minutes at 37° C. (EEs). The Rluc8 substrate coelenterazine 400A (Prolume, Lakeside, A Z) was added at a final concentration of 5 μmol/L and BRET readings were collected using an Infinite M1000 microplate reader (Tecan, Morrisville, N C). BRET2 readings between Rluc8 and GFP10 or rGFP were collected by sequential integration of the signals detected in the 370 to 450 nm (Rluc8) and 510 to 540 nm (GFP10, rGFP) windows. The BRET signal was calculated as the ratio of light emitted by acceptor (GFP10, rGFP) over the light emitted by donor (Rluc8). The values were corrected to net BRET by subtracting the background BRET signal obtained in cells transfected with Rluc8 constructs alone. Ligand-promoted net BRET values were calculated by subtracting vehicle-induced net BRET from ligand-induced net BRET.

T1 sequence (Q9NQS5 whole entry): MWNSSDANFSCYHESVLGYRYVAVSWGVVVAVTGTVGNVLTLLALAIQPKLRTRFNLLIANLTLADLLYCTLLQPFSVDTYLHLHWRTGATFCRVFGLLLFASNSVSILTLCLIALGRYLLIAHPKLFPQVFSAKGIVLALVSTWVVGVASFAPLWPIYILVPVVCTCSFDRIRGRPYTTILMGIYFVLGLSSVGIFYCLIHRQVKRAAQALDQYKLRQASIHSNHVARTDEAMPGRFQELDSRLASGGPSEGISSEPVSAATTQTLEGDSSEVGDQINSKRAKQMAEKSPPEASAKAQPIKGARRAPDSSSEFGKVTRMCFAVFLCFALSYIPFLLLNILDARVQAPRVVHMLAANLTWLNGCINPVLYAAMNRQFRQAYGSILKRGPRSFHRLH

pIC50 | inhibition at 2 µM [%] | inhibition at 10 µM [%] | SMILES
≥ 6.52 | > 75 | – | Cc1nc(OCC(=O)N(C)C)cc(=O)n1C(C)c1ccc(C#CC2CC2)cc1 (stereo not drawn) [Compound I-89]
– | – | 50 to 75 | Cc1cc(C#CC2CC2)cc(=O)n1[C@H](C)c1ccc(C#CC2CC2)cc1 [Compound I-90]
– | – | < 25 | Cc1cc(OCc2ncccn2)cc(=O)n1[C@H](C)c1ccc(OC(C)C)cc1 [Compound I-129]
– | – | < 25 | CCCCCCOc1ccc([C@@H](C)n2c(C)cc(OCc3ncccn3)cc2=O)cc1 [Compound I-130]
– | – | < 25 | Cc1cc(OCc2ncccn2)cc(=O)n1[C@H](C)c1ccc(/C=C/C2CC2)cc1 [Compound I-149]
– | – | < 25 | Cc1cc(OCc2ncccn2)cc(=O)n1[C@H](C)c1ccc(-c2ccc(C3CC3)cc2)cc1 [Compound I-150]
– | – | 50 to 75 | Cc1cc(OCC(=O)N2CCC3(CC2)CN(C)C3)cc(=O)n1[C@H](C)c1ccc(C#CC2CC2)cc1 [Compound I-203]
– | – | > 75 | Cc1cc(OCC(=O)N(C)C)cc(=O)n1[C@H](C)c1ccc(C#CC2(O)CC2)cc1 [Compound I-210]
– | – | < 25 | Cn1c(-c2ccc(C#CC3CC3)cc2)cc(OCC2COCCO2)nc1=O (stereo not drawn) [Compound I-215]
≥ 6.52 | > 75 | – | Cc1nc(OCC(=O)N(C)C)cc(=O)n1[C@H](C)c1ccc(C#CC2CC2)cc1 [Compound I-217]
– | – | < 25 | Cc1nc(OCC(=O)N(C)C)cc(=O)n1[C@@H](C)c1ccc(C#CC2CC2)cc1 [Compound I-218]
– | – | < 25 | Cc1cc(OCC(=O)N(C)C)cc(=O)n1C(C)c1ccccn1 (stereo not drawn) [Compound I-225]
– | – | < 25 | Cc1cc(OCC(=O)N(C)C)cc(=O)n1C(C)c1ccncc1 (stereo not drawn) [Compound I-227]
– | – | < 25 | COc1cc(C(C)n2c(C)cc(OCC(=O)N(C)C)cc2=O)ccn1 (stereo not drawn) [Compound I-230]
– | – | < 25 | Cc1cc(OCC(=O)N(C)C)cc(=O)n1C(C)c1ccnc(O)c1 (stereo not drawn) [Compound I-231]
≥ 6.52 | > 75 | – | Cc1cc(OCC(=O)N(C)CC(F)(F)F)cc(=O)n1[C@H](C)c1ccc(C#CC2CC2)cc1 [Compound I-232]
– | – | < 25 | Cc1cc(C#CC2CC2)cc(=O)n1[C@@H](C)c1ccc(C#CC2CC2)cc1 [Compound I-234]
≥ 6.52 | > 75 | – | Cc1nc(OCC(=O)N2CCCC2)cc(=O)n1[C@H](C)c1ccc(C#CC2CC2)cc1 [Compound I-235]
– | – | 25 to 50 | Cc1nc(OCC(=O)N2CCCC2)cc(=O)n1[C@@H](C)c1ccc(C#CC2CC2)cc1 [Compound I-236]
– | – | < 25 | Cc1cc(OCC(=O)N(C)CC(F)(F)F)cc(=O)n1[C@@H](C)c1ccc(C#CC2CC2)cc1 [Compound I-237]
– | < 25 | – | COc1cccc([C@H](C)n2c(C)cc(C#CC3CC3)cc2=O)c1 [Compound I-238]
– | < 25 | – | COc1ccc([C@H](C)n2c(C)cc(C#CC3CC3)cc2=O)cc1 [Compound I-239]
– | – | < 25 | Cc1cc(C#CC2CC2)cc(=O)n1[C@H](C)c1ccc(Br)cc1 [Compound I-240]
≥ 6.52 | > 75 | – | Cc1cc(OCC(=O)N2CC[C@@H](O)C2)cc(=O)n1[C@H](C)c1ccc(C#CC2CC2)cc1 [Compound I-241]

pIC50 | inhibition at 2 µM [%] | inhibition at 10 µM [%] | SMILES
≥ 6.52 | > 75 | – | Cc1cc(OCC(=O)N2CC[C@H](O)C2)cc(=O)n1[C@H](C)c1ccc(C#CC2CC2)cc1 [Compound I-242]
≥ 6.52 | > 75 | – | Cc1cc(OCC(=O)N2CC[C@@H](F)C2)cc(=O)n1[C@H](C)c1ccc(C#CC2CC2)cc1 [Compound I-243]
≥ 6.52 | > 75 | – | Cc1cc(OCC(=O)N2CC[C@H](F)C2)cc(=O)n1[C@H](C)c1ccc(C#CC2CC2)cc1 [Compound I-244]
≥ 6.52 | > 75 | – | Cc1cc(OCC(=O)N2CCC(=O)C2)cc(=O)n1[C@H](C)c1ccc(C#CC2CC2)cc1 [Compound I-245]
6.00 to 6.52 | – | > 75 | Cc1cc(OCC(=O)N2CCC[C@@H]2C(=O)O)cc(=O)n1[C@H](C)c1ccc(C#CC2CC2)cc1 [Compound I-246]
≥ 6.52 | > 75 | – | Cc1cc(OCC(=O)N2CCC[C@H]2CO)cc(=O)n1[C@H](C)c1ccc(C#CC2CC2)cc1 [Compound I-248]
≥ 6.52 | > 75 | – | Cc1cc(OCC(=O)N2CC[C@@H](C(=O)O)C2)cc(=O)n1[C@H](C)c1ccc(C#CC2CC2)cc1 [Compound I-250]
≥ 6.52 | > 75 | – | Cc1cc(OCC(=O)N2CC[C@H](C(=O)O)C2)cc(=O)n1[C@H](C)c1ccc(C#CC2CC2)cc1 [Compound I-251]
≥ 6.52 | > 75 | – | Cc1cc(OCC(=O)N2CC[C@@H](S(C)(=O)=O)C2)cc(=O)n1[C@H](C)c1ccc(C#CC2CC2)cc1 [Compound I-252]
– | – | > 75 | Cc1cc(OCC(=O)N2CC[C@H](S(C)(=O)=O)C2)cc(=O)n1[C@H](C)c1ccc(C#CC2CC2)cc1 [Compound I-253]
≥ 6.52 | > 75 | – | Cc1cc(OCC(=O)N2CCC[C@@H]2C(F)(F)F)cc(=O)n1[C@H](C)c1ccc(C#CC2CC2)cc1 [Compound I-254]
6.00 to 6.52 | > 75 | – | Cc1cc(OCC(=O)N2CCC[C@H]2C(F)(F)F)cc(=O)n1[C@H](C)c1ccc(C#CC2CC2)cc1 [Compound I-255]
– | > 75 | – | Cc1cc(OCC(=O)N2CCC(C)(C)C2)cc(=O)n1[C@H](C)c1ccc(C#CC2CC2)cc1 [Compound I-256]
≥ 6.52 | > 75 | – | Cc1cc(OCC(=O)N2CCC(F)(F)C2)cc(=O)n1[C@H](C)c1ccc(C#CC2CC2)cc1 [Compound I-257]
≥ 6.52 | > 75 | – | Cc1cc(OCC(=O)N2CCCC2(C)C)cc(=O)n1[C@H](C)c1ccc(C#CC2CC2)cc1 [Compound I-258]
≥ 6.52 | > 75 | – | Cc1cc(OCc2nnn[nH]2)cc(=O)n1[C@H](C)c1ccc(C#CC2CC2)cc1 [Compound I-259]
≥ 6.52 | > 75 | – | Cc1cc(OCc2nnnn2C)cc(=O)n1[C@H](C)c1ccc(C#CC2CC2)cc1 [Compound I-260]
6.00 to 6.52 | > 75 | – | Cc1cc(OCc2nnn(C)n2)cc(=O)n1[C@H](C)c1ccc(C#CC2CC2)cc1 [Compound I-261]
– | – | > 75 | Cc1cc(OCC(=O)N(C)C)cc(=O)n1C(C)c1ccc(C#CC2CC2)cc1Cl (stereo not drawn) [Compound I-262]
– | – | < 25 | Cc1cc(OCC(=O)N(C)C)cc(=O)n1[C@H](C)c1ccc(C#CC(=O)O)cc1 [Compound I-264]
– | – | < 25 | Cc1cc(OCC(=O)N(C)C)cc(=O)n1[C@H](C)c1ccc(C(=O)O)cc1 [Compound I-265]
– | – | < 25 | Cc1cc(OCC(=O)N(C)C)cc(=O)n1[C@H](C)c1ccc(-c2nnn[nH]2)cc1 [Compound I-266]
≥ 6.52 | > 75 | – | CCN(C)C(=O)COc1cc(C)n([C@H](C)c2ccc(C#CC3CC3)cc2)c(=O)c1 [Compound I-267]

From US20260055117A1, “SUBSTITUTED PYRIDONE GPR84 ANTAGONISTS AND USES THEREOF” (Liminal BioSciences Limited, priority 2022, published 2026)
